The target of the assay is T1, H. sapiens SLC2A9 variant 2 (GLUT9B) (Homo sapiens, UniProt Q9NRM0).
T1 sequence (Q9NRM0 1-511 isoform Q9NRM0-2): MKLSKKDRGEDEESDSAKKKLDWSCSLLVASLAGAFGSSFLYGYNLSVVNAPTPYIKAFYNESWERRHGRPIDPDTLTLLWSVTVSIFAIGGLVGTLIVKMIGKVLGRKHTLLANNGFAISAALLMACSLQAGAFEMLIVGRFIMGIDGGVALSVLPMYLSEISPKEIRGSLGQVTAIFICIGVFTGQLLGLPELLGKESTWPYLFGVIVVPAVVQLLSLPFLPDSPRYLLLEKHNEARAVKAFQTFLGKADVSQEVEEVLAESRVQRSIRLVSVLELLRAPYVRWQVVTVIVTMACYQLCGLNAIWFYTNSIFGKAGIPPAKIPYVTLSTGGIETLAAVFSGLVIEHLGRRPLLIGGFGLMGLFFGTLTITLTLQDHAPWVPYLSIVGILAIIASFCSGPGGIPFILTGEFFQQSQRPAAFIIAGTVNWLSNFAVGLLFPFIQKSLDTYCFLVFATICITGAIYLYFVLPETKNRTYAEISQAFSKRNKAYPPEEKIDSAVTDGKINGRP
Kind of assay: GLUT9 functional assay: uric acid uptake in HEK293T cells, allantoin formation by MS/MS as proxy of GLUT9B inhibition. The assay is classed as cell-based. The note with it: HEK293T cells stably expressing GLUT9B and transiently A. oryzae uricase, uric acid 0.3 mM, 37° C. The method, boiled down:
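HEK293T cells stably expressing human GLUT9B and transiently expressing A. oryzae uricase, exposed across a 12-point curve to 0.3 mM uric acid (Km) in sodium gluconate buffer pH 7.4 for 15 or 60 min at 37° C. Allantoin in lysates quantified by RapidFire MS/MS (positive ion) against a matrix-matched standard curve as proxy for uptake.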

Where [1] appears, read: 60 minute assay, read-out: 60 min IC50.
The mark [2] stands for this setting: 15 minute assay, read-out: 15 min IC50.

Molecules are shown by their SMILES. pIC50: −log10 of the molar value. Like-named read-outs stand apart in the source and are kept apart here.

As for `COCCCc1cnc(-c2cnc3sccc3c2)c(N2CCC(C(=O)O)CC2)n1` [Compound 210, 1-(6-(3-methoxypropyl)-3-(thieno[2,3-b]pyridin-5-yl)pyrazin-2-yl)piperidine-4-carboxylic acid], under setting [1], the pIC50 was 5.70 to 6.30. For `CCCCc1cnc(-c2ccc(OC)cc2)c(-c2cc(=O)[nH][nH]2)c1` [Compound 26, 5-(5-butyl-2-(4-methoxyphenyl)pyridin-3-yl)-1,2-dihydro-3H-pyrazol-3-one], under setting [2], the pIC50 was less than 5.70.

Regarding `CCCCc1cnc(-c2ccc(OC)cc2)c(N2CCC(CC(=O)O)CC2)n1` [Compound 15, 2-(1-(6-Butyl-3-(4-Methoxyphenyl)Pyrazin-2-yl)Piperidin-4-yl)Acetic acid], under setting [2], the pIC50 was more than 6.30. For the compound `O=C(O)C1(O)CCN(c2nc(CCC(F)(F)F)cnc2-c2cc(F)c3occc3c2)CC1` [Compound 91, 1-(3-(7-fluorobenzofuran-5-yl)-6-(3,3,3-trifluoropropyl)pyrazin-2-yl)-4-hydroxypiperidine-4-carboxylic acid], the pIC50 under setting [2] is more than 6.30. As for `CCCCc1cnc(-c2ccc3cc[nH]c3c2)c(N2CCC(C(=O)O)CC2)n1` [Compound 17, 1-(6-Butyl-3-(1H-Indol-6-yl)Pyrazin-2-yl)Piperidine-4-Carboxylic Acid], under setting [2], the pIC50 is 5.70 to 6.30.

`O=C(O)C1CCN(c2nc(CCCC(F)(F)F)cnc2-c2ccc3c(c2)OCCO3)CC1` [Compound 110, 1-(3-(2,3-dihydrobenzo[b][1,4]dioxin-6-yl)-6-(4,4,4-trifluorobutyl)pyrazin-2-yl)piperidine-4-carboxylic acid]: the pIC50 under setting [2] is 5.70 to 6.30. Turning to `O=C(O)C1CCN(c2nc(CCCC(F)(F)F)cnc2-c2ccc(OC3CC3)cc2)CC1` [Compound 113, 1-(3-(4-cyclopropoxyphenyl)-6-(4,4,4-trifluorobutyl)pyrazin-2-yl)piperidine-4-carboxylic acid], under setting [2], the pIC50 was 5.70 to 6.30. For the compound `COCCCc1cnc(-c2cc(F)c3occc3c2)c(N2CCCC(C(=O)O)CC2)c1` (centres unmarked) [Compound 245, 1-(2-(7-Fluorobenzofuran-5-yl)-5-(3-Methoxypropyl)Pyridin-3-yl)azepane-4-carboxylic acid], under setting [1], the pIC50 was more than 6.30.

Consider `CCCCc1cnc(-c2ccc(OC)cc2)c(N2CC3C(C2)C3C(=O)O)n1` (centres unmarked) [Compound 4, 3-(6-Butyl-3-(4-Methoxyphenyl)Pyrazin-2-yl)-3-Azabicyclo[3.1.0]Hexane-6-carboxylic acid], for which the pIC50 under setting [2] is more than 6.30. Consider `COCCCc1cnc(-c2cc3ccoc3c(F)c2F)c(N2CCC(C(=O)O)CC2)n1` [Compound 223, 1-(3-(6,7-difluorobenzofuran-5-yl)-6-(3-methoxypropyl)pyrazin-2-yl)piperidine-4-carboxylic acid], for which the pIC50 under setting [1] is more than 6.30. In the case of `O=C(O)C1CCN(c2nc(CCC(F)(F)F)cnc2-c2ccncc2)CC1` [Compound 105, 1-(3-(pyridin-4-yl)-6-(3,3,3-trifluoropropyl)pyrazin-2-yl)piperidine-4-carboxylic acid], the pIC50 under setting [2] is less than 5.70.

For `COCc1cnc(-c2cc(F)c3c(c2)CCO3)c(N2CCC(C(=O)O)CC2)n1` [Compound 55, 1-(3-(7-fluoro-2,3-dihydrobenzofuran-5-yl)-6-(methoxymethyl)pyrazin-2-yl)piperidine-4-carboxylic acid], the pIC50 under setting [2] is 5.70 to 6.30. As to `COCCCc1cnc(-c2ccn3ncnc3c2)c(N2CCC(C(=O)O)CC2)n1` [Compound 212, 1-(3-([1,2,4]triazolo[1,5-a]pyridin-7-yl)-6-(3-methoxypropyl)pyrazin-2-yl)piperidine-4-carboxylic acid], the pIC50 under setting [1] is less than 5.70. For the compound `O=C(O)C1CCN(c2nc(CCCC(F)(F)F)cnc2-c2cc(F)c3occc3c2)CC1` [Compound 129, 1-(3-(7-fluorobenzofuran-5-yl)-6-(4,4,4-trifluorobutyl)pyrazin-2-yl)piperidine-4-carboxylic acid], the pIC50 under setting [2] is more than 6.30. On the same count and under the same terms, next, `CCCCc1cnc(-c2ccc(OC)cc2)c(N2CCC(CCC(=O)O)CC2)n1` [Compound 48, 3-(1-(6-butyl-3-(4-methoxyphenyl)pyrazin-2-yl)piperidin-4-yl)propanoic acid]: more than 6.30. For the compound `O=C(O)C1CCN(c2nc(CCCC(F)(F)F)cnc2-c2ccc3c(c2)OC(F)(F)O3)CC1` [Compound 160, 1-(3-(2,2-difluorobenzo[d][1,3]dioxol-5-yl)-6-(4,4,4-trifluorobutyl)pyrazin-2-yl)piperidine-4-carboxylic acid], the pIC50 under setting [2] is 5.70 to 6.30. With `COCCCc1cnc(-c2cnc3c(c2)NCCO3)c(N2CCC(C(=O)O)CC2)n1` [Compound 216, 1-(3-(2,3-dihydro-1H-pyrido[2,3-b][1,4]oxazin-7-yl)-6-(3-methoxypropyl)pyrazin-2-yl)piperidine-4-carboxylic acid], the pIC50 under setting [1] was less than 5.70. Turning to `COCCCc1cnc(-c2ccn3ccnc3c2)c(N2CCC(C(=O)O)CC2)n1` [Compound 208, 1-(3-(imidazo[1,2-a]pyridin-7-yl)-6-(3-methoxypropyl)pyrazin-2-yl)piperidine-4-carboxylic acid], the pIC50 under setting [1] is less than 5.70. For the compound `CCCCc1cnc(-c2ccc(OC)cc2)c(-c2csc(C(=O)O)n2)c1` [Compound 20, 4-(5-butyl-2-(4-methoxyphenyl)pyridin-3-yl)thiazole-2-carboxylic acid], the pIC50 under setting [2] is less than 5.70.

Turning to `O=C(O)C1CCN(c2nc(CCCOCC(F)(F)F)cnc2-c2ccc3occc3c2)CC1` [Compound 177, 1-(3-(benzofuran-5-yl)-6-(3-(2,2,2-trifluoroethoxy)propyl)pyrazin-2-yl)piperidine-4-carboxylic acid], the pIC50 under setting [2] was more than 6.30. Take `COCCCc1cnc(-c2ccc3occ(C)c3c2)c(N2CCC(C(=O)O)CC2)n1` [Compound 242, 1-(6-(3-methoxypropyl)-3-(3-methylbenzofuran-5-yl)pyrazin-2-yl)piperidine-4-carboxylic acid]: the pIC50 under setting [1] is 5.70 to 6.30.

With `CCCCc1cnc(-c2ccc(OC)cc2)c(N2CCC(S(C)(=O)=O)CC2)n1` [Compound 8, 5-Butyl-2-(4-Methoxyphenyl)-3-(4-(Methylsulfonyl)Piperidin-1-yl)pyrazine], the pIC50 under setting [2] is less than 5.70. `O=C(O)C1CCN(c2nc(CCCC(F)(F)F)cnc2-c2ccc3c(c2)CCO3)CC1` [Compound 107, 1-(3-(2,3-dihydrobenzofuran-5-yl)-6-(4,4,4-trifluorobutyl)pyrazin-2-yl)piperidine-4-carboxylic acid]: the pIC50 under setting [2] is more than 6.30. With `COCCCc1cnc(-c2cccc3cn(C)nc23)c(N2CCC(C(=O)O)CC2)n1` [Compound 213, 1-(6-(3-methoxypropyl)-3-(2-methyl-2H-indazol-7-yl)pyrazin-2-yl)piperidine-4-carboxylic acid], under setting [1], the pIC50 is less than 5.70. In the case of `COCCCCCc1cnc(-c2cc(F)c3occc3c2)c(N2CCC(C(=O)O)CC2)n1` [Compound 228, 1-(3-(7-fluorobenzofuran-5-yl)-6-(5-methoxypentyl)pyrazin-2-yl)piperidine-4-carboxylic acid], the pIC50 under setting [1] was more than 6.30. Consider `O=C(O)C1CCN(c2nc(CCC(F)(F)F)cnc2-c2cnc3c(c2)CCO3)CC1` [Compound 87, 1-(3-(2,3-dihydrofuro[2,3-b]pyridin-5-yl)-6-(3,3,3-trifluoropropyl)pyrazin-2-yl)piperidine-4-carboxylic acid], for which the negative logarithm of the IC50 (pIC50) under setting [2] was less than 5.70. Same read-out and setting: in the case of `COCCOc1ccc(-c2ncc(CCCC(F)(F)F)nc2N2CCC(O)(C(=O)O)CC2)cc1` [Compound 167, 4-hydroxy-1-(3-(4-(2-methoxyethoxy)phenyl)-6-(4,4,4-trifluorobutyl)pyrazin-2-yl)piperidine-4-carboxylic acid] it was less than 5.70. Consider `COCCCc1cnc(-c2cc3sccc3s2)c(N2CCC(C(=O)O)CC2)n1` [Compound 203, 1-(6-(3-methoxypropyl)-3-(thieno[3,2-b]thiophen-2-yl)pyrazin-2-yl)piperidine-4-carboxylic acid], for which the pIC50 under setting [1] was less than 5.70. As to `COCCCc1cnc(-c2cc(F)c3c(c2)OCO3)c(N2CCC(C(=O)O)CC2)c1` [Compound 169, 1-(2-(7-fluorobenzo[d][1,3]dioxol-5-yl)-5-(3-methoxypropyl)pyridin-3-yl)piperidine-4-carboxylic acid], the pIC50 under setting [2] was more than 6.30.

Turning to `CCCCc1cnc(-c2ccc3c(c2)CC(C)(C)O3)c(N2CCC(C(=O)O)CC2)n1` [Compound 79, 1-(6-butyl-3-(2,2-dimethyl-2,3-dihydrobenzofuran-5-yl)pyrazin-2-yl)piperidine-4-carboxylic acid], under setting [2], the pIC50 was less than 5.70. As for `O=C(O)C1CCN(c2nc(CCCC(F)(F)F)cnc2-c2ccc(OC(F)F)cc2)CC1` [Compound 159, 1-(3-(4-(difluoromethoxy)phenyl)-6-(4,4,4-trifluorobutyl)pyrazin-2-yl)piperidine-4-carboxylic acid], the pIC50 under setting [2] is 5.70 to 6.30. Still for that read-out and setting: next, `O=C(O)C1CCN(c2nc(CCCOC(F)(F)F)cnc2-c2ccc3occc3c2)CC1` [Compound 151, 1-(3-(benzofuran-5-yl)-6-(3-(trifluoromethoxy)propyl)pyrazin-2-yl)piperidine-4-carboxylic acid]: more than 6.30.
